Among the data in patent US7767665B2, “1,3-benzothiazinone derivatives and use thereof” (Takeda Pharmaceutical Company Limited, priority 2001, dated 2010) are melting point values, retold here.

A word on the melting point: it is the temperature, or range, at which the solid turns liquid.

The structures appear in SMILES notation.

Take `O=C(O)CS(=O)(=O)c1cccc(-c2nc(=O)c3ccccc3s2)n1` [Example 281, [6-(4-Oxo-4H-1,3-benzothiazin-2-yl)-2-pyridyl]sulfonylacetic acid]: the melting point lay in the range of 192 to 193.5 °C. For `CCS(=O)(=O)c1cccc(-c2nc(=O)c3ccccc3s2)n1` [Example 150, 2-[6-(Ethylsulfonyl)-2-pyridyl]-4H-1,3-benzothiazine-4-one] the value was 201.5 to 203 °C; for `CN(C)c1cncc(-c2nc(=O)c3ccccc3s2)n1` [Example 290, 2-[6-(Dimethylamino)-2-pyrazinyl]-4H-1-benzothiazine-4-one], 248 to 249 °C. In turn, `CCOP(=O)(CCc1ccnc(-c2nc(=O)c3ccccc3s2)c1)OCC` showed a melting point of 102 to 103.2 °C.

Regarding `O=c1nc(-c2nccs2)sc2ccccc12` [Example 348, 2-(1,3-thiazol-2-yl)-4H-1,3-benzothiazin-4-one], the melting point is 229.1 to 229.8 °C. In turn, `CC(C)Oc1ccc(-c2nc(=O)c3ccccc3s2)cn1` [Example 93, 2-[6-Isopropoxy-3-pyridyl]-4H-1,3-benzothiazine-4-one] came in with a melting point of 109.7 to 110.4 °C.

For `CS(=O)(=O)NCc1cccc(-c2nc(=O)c3ccccc3s2)n1` [Example 211, N-[[6-(4-Oxo-4H-1,3-benzothiazin-2-yl)-2-pyridyl]methyl]methanesulfonamide], the melting point was 188.1 to 189.5 °C. For `O=c1nc(-c2cccc(CCCO)n2)sc2ccccc12` [Example 302, 2-[6-(3-Hydroxypropyl)-2-pyridyl]-4H-1,3-benzothiazine-4-one] the value was 145.5 to 146 °C; for `Cc1cc(CCC(=O)OC(C)(C)C)cc(-c2nc(=O)c3ccc(Cl)cc3s2)n1` [Example 320, tert-Butyl 3-[2-(7-chloro-4-oxo-4H-1,3-benzothiazin-2-yl)-6-methyl-4-pyridyl]propanoate], 186.4 to 187.6 °C; for `O=C(O)COc1ccc2sc(-c3ccccn3)nc(=O)c2c1` [Example 123, 2-[[4-Oxo-2-(2-pyridyl)-4H-1,3-benzothiazin-6-yl]oxy]acetic acid], 250 °C (dec.). `C[S+]([O-])c1cncc(-c2nc(=O)c3ccccc3s2)n1` (stereo not drawn) [Example 288, 2-[6-(Methylsulfinyl)-2-pyrazinyl]-4H-1,3-benzothiazine-4-one] yielded a melting point of 228.5 to 230.5 °C. As to `COC(CCCNc1ccc(-c2nc(=O)c3ccccc3s2)cn1)OC` [Example 86, 2-[6-[(4,4-Dimethoxybutyl)amino]-3-pyridyl]-4H-1,3-benzothiazine-4-one], the melting point was 157.2 to 158.5 °C. For `CCOC(=O)C(C)Cc1ccnc(-c2nc(=O)c3ccccc3s2)c1` (stereo not drawn) [Example 318, Ethyl 2-methyl-3-[2-(4-oxo-4H-1,3-benzothiazin-2-yl)-4-pyridyl]propionate] the value was 120.3 to 120.7 °C. Turning to `O=c1nc(-c2ccccn2)sc2ccc(OCc3ccccc3)cc12` [Example 121, 6-(Benzyloxy)-2-(2-pyridyl)-4H-1,3-benzothiazine-4-one], the melting point was 198 to 198.8 °C. For `CCCNc1ccc(-c2nc(=O)c3ccccc3s2)cn1` [Example 31, 2-[6-(Propylamino)-3-pyridyl]-4H-1,3-benzothiazine-4-one] the value was 210.1 to 210.6 °C; for `C[S+]([O-])Cc1cccc(-c2nc(=O)c3ccccc3s2)n1` (stereo not drawn) [Example 168, 2-(6-Methylsulfinylmethyl-2-pyridyl)-4H-1,3-benzothiazine-4-one], 184.5 to 185.5 °C; for `CS(=O)(=O)Cc1cccc(-c2nc(=O)c3ccccc3s2)n1` [Example 169, 2-(6-Methylsulfonylmethyl-2-pyridyl)-4H-1,3-benzothiazine-4-one], 230.5 to 231.5 °C. For `O=C(NCCO)c1cccc(-c2nc(=O)c3ccccc3s2)n1` [Example 201, N-(2-Hydroxyethyl)-6-(4-oxo-4H-1,3-benzothiazin-2-yl)-2-pyridinecarboxamide] the value was 213.8 to 215.2 °C; for `NC(=O)CCc1cccc(-c2nc(=O)c3ccccc3s2)n1` [Example 330, 3-[6-(4-Oxo-4H-1,3-benzothiazin-2-yl)-2-pyridyl]propanamide], 236.3 to 236.5 °C; for `CCOC(=O)C(C)Cc1cccc(-c2nc(=O)c3ccccc3s2)n1` (stereo not drawn) [Example 315, Ethyl 2-methyl-3-[6-(4-oxo-4H-1,3-benzothiazin-2-yl)-2-pyridyl]propionate], 120.2 to 120.7 °C. `O=c1nc(-c2ccccn2)sc2ccc(OCCCc3ccccc3)cc12` [Example 120, 6-(3-Phenylpropoxy)-2-(2-pyridyl)-4H-1,3-benzothiazine-4-one] gave a melting point of 170 to 170.3 °C.

In turn, `O=c1nc(-c2cccc(SCCc3ccccc3)n2)sc2ccccc12` [Example 131, 2-[6-(2-Phenethylthio)-2-pyridyl]-4H-1,3-benzothiazine-4-one] came in with a melting point of 167.1 to 168.4 °C. For `O=C(O)CCc1cccc(-c2nc(=O)c3ccc(C(F)(F)F)cc3s2)n1` [Example 178, 3-[6-(4-Oxo-7-trifluoromethyl-4H-1,3-benzothiazin-2-yl)-2-pyridyl]propionic acid] the value was 192.9 to 193.1 °C; for `O=c1nc(-c2cccc(CP(=O)(O)O)n2)sc2ccccc12` [Example 244], 254 °C (dec.). `Cc1ccc2sc(-c3ccccn3)nc(=O)c2c1` [Example 13, 6-Methyl-2-(2-pyridyl)-4H-1,3-benzothiazine-4-one] gave a melting point of 219.8 to 220.8 °C.

In turn, `O=c1nc(-c2ccc(NCc3ccccc3)nc2)sc2ccccc12` [Example 32, 2-[6-(Benzylamino)-3-pyridyl]-4H-1,3-benzothiazine-4-one] came in with a melting point of 194.3 to 196.2 °C.

`CC(=O)N1CCCC1c1ccnc(-c2nc(=O)c3ccccc3s2)c1` (stereo not drawn) [Example 351, 2-[4-(1-Acetyl-2-pyrrolidinyl)-2-pyridyl]-4H-1,3-benzothiazine-4-one] gave a melting point of 206.2 to 207.4 °C. For `CCCCCS(=O)(=O)c1cccc(-c2nc(=O)c3ccccc3s2)n1` [Example 156, 2-[6-(n-Pentylsulfonyl)-2-pyridyl]-4H-1,3-benzothiazine-4-one] the value was 160 to 161 °C; for `CCCCC[S+]([O-])c1cccc(-c2nc(=O)c3ccccc3s2)n1` (stereo not drawn) [Example 155, 2-[6(n-Pentylsulfinyl)-2-pyridyl]-4H-1,3-benzothiazine-4-one], 146 to 147 °C; for `CC(C)(C)OC(=O)CCc1ccnc(-c2nc(=O)c3ccccc3s2)c1` [Example 309, tert-butyl 3-[2-(4-oxo-4H-1,3-benzothiazin-2-yl)-4-pyridyl]propionate], 135.8 to 136.7 °C. For `CCOC(=O)c1ccnc(-c2nc(=O)c3ccccc3s2)c1` [Example 27, Ethyl 2-(4-oxo-4H-1,3-benzothiazin-2-yl)isonicotinate] the value was 235.9 to 236.7 °C; for `COc1cccc2c(=O)nc(-c3ccccn3)sc12` [Example 18, 8-Methoxy-2-(2-pyridyl)-4H-1,3-benzothiazine-4-one], 191.2 to 191.4 °C. For `O=C(O)CCCCc1cccc(-c2nc(=O)c3ccccc3s2)n1` [Example 304, 5-[6-(4-Oxo-4H-1,3-benzothiazin-2-yl)-2-pyridyl]valeric acid] the value was 161.9 to 162.3 °C; for `O=C(NCCc1cccc(-c2nc(=O)c3ccccc3s2)n1)c1ccccc1` [Example 224, N-[2-[6-(4-Oxo-4H-1,3-benzothiazin-2-yl)-2-pyridyl]ethyl]benzamide], 201.7 to 202.6 °C. With `O=c1nc(-c2cccc(SCc3ccccc3)n2)sc2ccccc12` [Example 159, 2-(6-Benzylthio-2-pyridyl)-4H-1,3-benzothiazine-4-one], the melting point was 227 to 228 °C.

The compound `CN(CC(=O)OC(C)(C)C)c1nccc(-c2nc(=O)c3ccccc3s2)n1` [Example 293, tert-Butyl {methyl [6-(4-oxo-4H-1,3-benzothiazin-2-yl)-2-pyrimidinyl]amino}acetate] registered a melting point of 186.5 to 188 °C. Consider `CC(C)(C)OC(=O)CNc1nccc(-c2nc(=O)c3ccccc3s2)n1` [Example 295, tert-Butyl {[6-(4-oxo-4H-1,3-benzothiazin-2-yl)-2-pyrimidinyl]amino}acetate], for which the melting point lay within 247 to 248 °C. The compound `CCCCCSc1cccc(-c2nc(=O)c3ccccc3s2)n1` [Example 129, 2-[6-(Pentylthio)-2-pyridyl]-4H-1,3-benzothiazine-4-one] showed a melting point of 105 to 105.1 °C. In the case of `C[S+]([O-])c1cccc(-c2nc(=O)c3ccccc3s2)n1` (stereo not drawn) [Example 44, 2-(6-Methylsulfinyl-2-pyridyl)-4H-1,3-benzothiazine-4-one], the melting point was 256.5 °C (dec.).

Compound `O=c1nc(-c2cccc(C[S+]([O-])Cc3ccccc3)n2)sc2ccccc12` (stereo not drawn) [Example 256, 2-[6-[(Benzylsulfinyl)methyl]-2-pyridyl]-4H-1,3-benzothiazine-4-one] registered a melting point of 187 to 189 °C. On to `CSc1ccc(Oc2ccc(-c3nc(=O)c4ccccc4s3)cn2)cc1` [Example 89], for which the melting point fell in the range of 140.5 to 140.6 °C. For `CCOCCOc1ccc(-c2nc(=O)c3ccccc3s2)cn1` [Example 94, 2-[6-(2-Ethoxyethoxy)-3-pyridyl]-4H-1,3-benzothiazine-4-one] the value was 93.6 to 94.9 °C; for `Cc1ccc2c(=O)nc(-c3cccc(CCC(=O)OC(C)(C)C)n3)sc2c1` [Example 175, tert-Butyl 3-[6-(7-methyl-4-oxo-4H-1,3-benzothiazin-2-yl)-2-pyridyl]propanoate], 134.8 to 134.9 °C; for `O=C(O)CCc1ccnc(-c2nc(=O)c3ccc(Br)cc3s2)c1` [Example 188, 3-[2-(7-Bromo-4-oxo-4H-1,3-benzothiazin-2-yl)-4-pyridyl]propionic acid], 257.5 to 259.1 °C. Take `Cc1cccc2c(=O)nc(-c3cccc(C(=O)OC(C)(C)C)n3)sc12` [Example 232, tert-Butyl 6-(8-methyl-4-oxo-4H-1,3-benzothiazin-2-yl)-2-pyridinecarboxylate]: the melting point lay in the range of 204.3 to 204.7 °C.
